Measurements from US8207154B2, “Catatonic bacteriochlorophyll derivatives” (Yeda Research and Development Co., Ltd., priority 2005, dated 2012).
Read-outs that look alike come from different tables or passages of the source.

System: H5V cells
Assay: Phototoxicity assay (PDT efficacy at two incubation times), neutral red survival
Type: cell-based, mouse
Conditions: then 10 min illumination, 12 J/cm^2
Description: H5V cells (40×10^3/well) were cultured in 96-well plates for 24 h to ˜80% confluence. To determine phototoxicity, the culture medium was replaced with 100 μl/well medium, in the absence or presence of 10^−8 to 10^−6 M sensitizer, and incubated in the dark for 15 min or 3 h in the culture incubator. The plates (PDT group) were then placed in the light field at room temperature and illuminated from the bottom for 10 min (800>λ>650 nm, 12 J/cm^2). After illumination, the medium was changed to fresh culture medium. The cultures were then placed in the culture incubator and cell survival was determined 24 h later, using the neutral red survival assay described below.
Following 24 h post PDT the culture medium in the wells was replaced with 100 μl fresh medium containing 40 μg/ml neutral red. The plate was incubated for 1.5 h in a dark culture incubator. The medium was aspirated and the cells washed with 100 μl of solution containing 1% CaCl2 and 0.5% formaldehyde, which removes the unincorporated dye and fixes the cells to the substratum. The dye was then extracted from the cells into the supernatant upon addition of 100 μl 1% glacial acetic acid in 50% ethanol. After 1-2 min at room temperature, the optical density of the wells was determined in a microplate spectrophotometer using a 570 nm filter. After subtraction of assay blanks, net optical density was computed as the average value of triplicate determinations. Cell survival was calculated as the percent of the dye accumulated in the untreated control. To determine cell survival data was plotted against sensitizer concentration. These curves were then used to calculated LD50 values.
Following synthesis, the compounds described in the Examples 23 to 75 above were purified, divided into equal aliquots and lyophilized for storage (desiccated at −20° C.). The exact material content was determined by HPLC-diode array detection, and the PDT efficacy was evaluated at two incubation times as described in the experimental section.

[1] = 15 min incubation in the dark, read-out: IC50 15 min
[2] = 3 h incubation in the dark, read-out: IC50 3 hours

SMILES | IC50 [1] [nM] | IC50 [2] [nM]
CCC1C2=Cc3c(C)c(C(=O)NCCNc4ccccn4)c4[n]3[Pd][n]3c(c(C)c(C(C)=O)c3=CC(=N2)C1C)=CC1=NC(=C4CC(=O)OC)C(CCC(=O)NCCNc2ccccn2)C1C (centres unmarked) [Compound 44, Palladium 3^1-oxo-15-methoxycarbonylmethyl-Rhodobacteriochlorin-13^1,17^3-di(2-N-(2′-pyridyl)aminoethyl)amide] | 1410 | 170
CC[C@H]1C2=NC(=Cc3c(C(C)=O)c(C)c4[n]3[Pd][n]3c(c(C)c(C(=O)NCCN(CC)CC)c3=C(CC(=O)OC)C3=NC(=C4)[C@@H](C)[C@@H]3CCC(=O)NCCN(CC)CC)=C2)[C@@H]1C [Compound 45, Palladium 3^1-oxo-15-methoxycarbonylmethyl-Rhodobacteriochlorin-13^1, 17^3-di(2-N^2-diethylaminoethyl)amide] | 200 | 180
CC[C@H]1C2=NC(=Cc3c(C(C)=O)c(C)c4[n]3[Pd][n]3c(c(C)c(C(=O)NCC(O)CO)c3=C(CC(=O)OC)C3=NC(=C4)[C@@H](C)[C@@H]3CCC(=O)NCCN)=C2)[C@@H]1C (some centres unmarked) [Compound 47, Palladium 3^1-oxo-15-methoxycarbonylmethyl-Rhodobacteriochlorin-13^1-(2,3-dihydroxypropyl)amide-17^3-(2-aminoethyl) amide] | 450 | 250
CCC1C2=Cc3c(C)c(C(=O)NCCN)c4[n]3[Pd][n]3c(c(C)c(C(C)=O)c3=CC(=N2)C1C)=CC1=NC(=C4CC(=O)OC)C(CCC(=O)NCC(O)CO)C1C (centres unmarked) [Compound 48, Palladium 3^1-oxo-15-methoxycarbonylmethyl-Rhodobacteriochlorin-13^1-(2-aminoethyl)amide-17^3-(2,3-dihydroxypropyl) amide] | 600 | 200
CC[C@H]1C2=NC(=Cc3c(C(C)=O)c(C)c4[n]3[Pd][n]3c(c(C)c(C(=O)NCC(O)CO)c3=C(CC(=O)OC)C3=NC(=C4)[C@@H](C)[C@@H]3CCC(=O)NCCN(C)C)=C2)[C@@H]1C (some centres unmarked) [Compound 49, Palladium 3^1-oxo-15-methoxycarbonylmethyl-Rhodobacteriochlorin-13^1-(2,3-dihydroxypropyl)amide-17^3-(2-N^2-dimethylaminoethyl)amide] | 1150 | 570
CC[C@H]1C2=NC(=Cc3c(C(C)=O)c(C)c4[n]3[Pd][n]3c(c(C)c(C(=O)NCCN(C)C)c3=C(CC(=O)OC)C3=NC(=C4)[C@@H](C)[C@@H]3CCC(=O)NCC(O)CO)=C2)[C@@H]1C (some centres unmarked) [Compound 50, Palladium 3^1-oxo-15-methoxycarbonylmethyl-Rhodobacteriochlorin-13^1-(2-N^2-dimethylaminoethyl)amide-17^3-(2,3-dihydroxypropyl)amide] | 470 | 170
CC[C@H]1C2=NC(=Cc3c(C(C)=O)c(C)c4[n]3[Pd][n]3c(c(C)c(C(=O)NCC(O)CO)c3=C(CC(=O)OC)C3=NC(=C4)[C@@H](C)[C@@H]3CCC(=O)NCCNCCN)=C2)[C@@H]1C (some centres unmarked) [Compound 51, Palladium 3^1-oxo-15-methoxycarbonylmethyl-Rhodobacteriochlorin-13^1-(2,3-dihydroxypropyl)amide-17^3-(2-[(2-aminoethyl)amino]ethyl)amide] | 780 | 400
CC[C@H]1C2=NC(=Cc3c(C(C)=O)c(C)c4[n]3[Pd][n]3c(c(C)c(C(=O)NCC(O)CO)c3=C(CC(=O)OC)C3=NC(=C4)[C@@H](C)[C@@H]3CCC(=O)NCCNCCN(CC)CC)=C2)[C@@H]1C (some centres unmarked) [Compound 52, Palladium 3^1-oxo-15-methoxycarbonylmethyl-Rhodobacteriochlorin-13^1-(2,3-dihydroxypropyl)amide-17^3-(2-[(2-N^2-diethylaminoethyl)amino]ethyl)amide] | 830 | 890
CC[C@H]1C2=NC(=Cc3c(C(C)=O)c(C)c4[n]3[Pd][n]3c(c(C)c(C(=O)NCC(O)CO)c3=C(CC(=O)OC)C3=NC(=C4)[C@@H](C)[C@@H]3CCC(=O)NCCN3CCOCC3)=C2)[C@@H]1C (some centres unmarked) [Compound 53, Palladium 3^1-oxo-15-methoxycarbonylmethyl-Rhodobacteriochlorin-13^1-(2,3-dihydroxypropyl)amide-17^3-(2-morpholino-N-ethyl)amide] | 2000 | 900
CC[C@H]1C2=NC(=Cc3c(C(C)=O)c(C)c4[n]3[Pd][n]3c(c(C)c(C(=O)NCC(O)CO)c3=C(CC(=O)OC)C3=NC(=C4)[C@@H](C)[C@@H]3CCC(=O)NCCN3CCNCC3)=C2)[C@@H]1C (some centres unmarked) [Compound 54, Palladium 3^1-oxo-15-methoxycarbonylmethyl-Rhodobacteriochlorin-13^1-(2,3-dihydroxypropyl)amide-17^3-(2-piperazino-N-ethyl)amide] | 750 | 270
CC[C@H]1C2=NC(=Cc3c(C(C)=O)c(C)c4[n]3[Pd][n]3c(c(C)c(C(=O)NCCNCCN)c3=C(CC(=O)OC)C3=NC(=C4)[C@@H](C)[C@@H]3CCC(=O)NCC(O)CO)=C2)[C@@H]1C (some centres unmarked) [Compound 55, Palladium 3^1-oxo-15-methoxycarbonylmethyl-Rhodobacteriochlorin-13^1-(2-[(2-aminoethyl)amino]ethyl)amide-17^3-(2,3-dihydroxypropyl)amide] | 1070 | 430
CC[C@H]1C2=NC(=Cc3c(C(C)=O)c(C)c4[n]3[Pd][n]3c(c(C)c(C(=O)NCC(O)CO)c3=C(CC(=O)OC)C3=NC(=C4)[C@@H](C)[C@@H]3CCC(=O)NCCNc3ccccn3)=C2)[C@@H]1C (some centres unmarked) [Compound 56, Palladium 3^1-oxo-15-methoxycarbonylmethyl-Rhodobacteriochlorin-13^1-(2,3-dihydroxypropyl)amide-17^3-(2-N-(2′-pyridyl)aminoethyl)amide] | 790 | 320
CCC1C2=Cc3c(C)c(C(=O)NCCNc4ccccn4)c4[n]3[Pd][n]3c(c(C)c(C(C)=O)c3=CC(=N2)C1C)=CC1=NC(=C4CC(=O)OC)C(CCC(=O)NCC(O)CO)C1C (centres unmarked) [Compound 57, Palladium 3^1-oxo-15-methoxycarbonylmethyl-Rhodobacteriochlorin-13^1-(2-N-(2′-pyridyl)aminoethyl)amide-17^3-(2,3-dihydroxypropyl)amide] | 1330 | 600
CC[C@H]1C2=NC(=Cc3c(C(C)=O)c(C)c4[n]3[Pd][n]3c(c(C)c(C(=O)NCC(O)CO)c3=C(CC(=O)OC)C3=NC(=C4)[C@@H](C)[C@@H]3CCC(=O)NCCN(CCN)CCN)=C2)[C@@H]1C (some centres unmarked) [Compound 58, Palladium 3^1-oxo-15-methoxycarbonylmethyl-Rhodobacteriochlorin-13^1-(2,3-dihydroxypropyl)amide-17^3-([2-bis(2-aminoethyl)amino]ethyl)amide] | 640 | 370
CC(=O)O.CC(=O)O.CC(=O)O.CC[C@H]1C2=NC(=Cc3c(C(C)=O)c(C)c4[n]3[Pd][n]3c(c(C)c(C(=O)NCCN(CCN)CCN)c3=C(CC(=O)OC)C3=NC(=C4)[C@@H](C)[C@@H]3CCC(=O)NCC(O)CO)=C2)[C@@H]1C (some centres unmarked) [Compound 59, Palladium 3^1-oxo-15-methoxycarbonylmethyl-Rhodobacteriochlorin-13^1-([2-bis(2-aminoethyl)amine]ethyl)amide-17^3-(2,3-dihydroxypropyl)amide] | 450 | 190
CC(=O)O.CC[C@H]1C2=NC(=Cc3c(C(C)=O)c(C)c4[n]3[Pd][n]3c(c(C)c(C(=O)NCCCCN)c3=C(CC(=O)OC)C3=NC(=C4)[C@@H](C)[C@@H]3CCC(=O)NCC(O)CO)=C2)[C@@H]1C (some centres unmarked) [Compound 61, Palladium 3^1-oxo-15-methoxycarbonylmethyl-Rhodobacteriochlorin-13^1-(4-aminobutyl)amide-17^3-(2,3-dihydroxypropyl) amide] | 690 | 210
CC(=O)O.CCNCCNC(=O)c1c(C)c2[n]3c1=C(CC(=O)OC)C1=NC(=Cc4c(C)c(C(C)=O)c([n]4[Pd]3)C=C3N=C(C=2)[C@H](CC)[C@H]3C)[C@@H](C)[C@@H]1CCC(=O)NCC(O)CO (some centres unmarked) [Compound 63, Palladium 3^1-oxo-15-methoxycarbonylmethyl-Rhodobacteriochlorin-13^1-(2-N-ethylaminoethyl)amide-17^3-(2,3-dihydroxypropyl)amide] | 660 | 210
CC(=O)O.CC[C@H]1C2=NC(=Cc3c(C(C)=O)c(C)c4[n]3[Pd][n]3c(c(C)c(C(=O)NCCCNC)c3=C(CC(=O)OC)C3=NC(=C4)[C@@H](C)[C@@H]3CCC(=O)NCC(O)CO)=C2)[C@@H]1C (some centres unmarked) [Compound 64, Palladium 3^1-oxo-15-methoxycarbonylmethyl-Rhodobacteriochlorin-13^1-(3-N-methylaminopropyl)amide-17^3-(2,3-dihydroxypropyl)amide] | 560 | 170
CC(=O)O.CC[C@H]1C2=NC(=Cc3c(C(C)=O)c(C)c4[n]3[Pd][n]3c(c(C)c(C(=O)NCCN(C)C)c3=C(CC(=O)OC)C3=NC(=C4)[C@@H](C)[C@@H]3CCC(=O)NCCCO)=C2)[C@@H]1C [Compound 66, Palladium 3^1-oxo-15-methoxycarbonylmethyl-Rhodobacteriochlorin-13^1-(2-N^2-dimethylaminoethyl)amide-17^3-(3-hydroxypropyl)amide] | 550 | 200
